Results: PMC3462244 (2012)

Target: cannabinoid receptor subtype 2 (CB2) (Homo sapiens, UniProt P34972)
Assay: [3H]CP-55940 radioligand competition binding, CHO-CB2 cell membranes

cannabinoid receptor subtype 2 (CB2), sequence (P34972 whole entry): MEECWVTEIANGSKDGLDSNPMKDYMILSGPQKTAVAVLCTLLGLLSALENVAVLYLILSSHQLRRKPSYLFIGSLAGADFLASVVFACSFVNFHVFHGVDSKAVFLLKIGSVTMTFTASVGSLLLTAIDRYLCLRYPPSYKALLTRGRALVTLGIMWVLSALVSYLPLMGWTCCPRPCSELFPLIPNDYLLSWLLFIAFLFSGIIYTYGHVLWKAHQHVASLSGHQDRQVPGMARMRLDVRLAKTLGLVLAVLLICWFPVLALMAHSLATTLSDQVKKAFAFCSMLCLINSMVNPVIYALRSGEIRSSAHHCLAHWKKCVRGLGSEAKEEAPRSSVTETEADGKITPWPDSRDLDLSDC

| SMILES | Ki [nM] | Experimental pKi [pKi] |
| --- | --- | --- |
| COC(=O)C1(C)CCCC2(C)c3cc(O)c(C(C)C)cc3CCC12 (stereo not shown) [compound 49888, NSC49888] | 6.7 | – |
| COc1ccc2c(c1)CCC1=C2CC2C(=O)C1(C)CCC2(C)OC(C)=O (stereo not shown) [compound 76301, NSC76301] | – | 5.42 |
| COc1ccc2c(c1)c1c(C)c3cnccc3c(C)c1n2CCCN1C(=O)c2ccccc2C1=O [compound 174122, NSC174122] | – | 5.59 |
| CC(=O)OC1CC2C3(C)CCC4C(C)(C)CCCC4(C)C3CC(O)C2(C)C2C1=COC2OC(C)=O (stereo not shown) [compound 369049, NSC369049] | – | 5.51 |
